Data set [1] has as its system rats. Put plainly: Object Recognition Task (episodic memory), 6 hour delay. Conditions: for performance in the object recognition task: 6 h delay; for disruption of behavior: first four rats; for Recognition Score: vehicle 60%. The procedure:
It is based on rodents' natural preference for exploring novel objects over familiar objects. The experimental protocol is as follows:
The experiment takes place over a total of 4 days. Objects used for testing included square 60-mL clear glass tablet bottles with a black phenolic cap (“bottle”) or […] high, 1¼-inch interior diameter aluminum electrical metal tubing conduit couplings (“conduit”). On the first 3 days, the rat was placed into a test box for 15 minutes of habituation. On the fourth day, two identical copies of the same object were arranged in the box, one in each of the near corners about ½ inch from the walls—two bottles for half of the rats, two conduits for the other half. The rat was brought to the test room, placed in the middle of the box facing the center of the back wall, and allowed to explore the objects for a 3-minute information trial, after which it was returned to its home cage and to the housing room. After a specified delay, one copy of the original object (“familiar,” not the copy already encountered) and one copy of the other object (“novel”) were arranged in the near corners, with positions counterbalanced to avoid bias, and the rat was placed back in the box for a recognition trial. […] The result of scoring is the time spent with the novel object, expressed as a %-age number (the “Recognition Score”)
Normal rats spend more time exploring the novel object, indicating memory for the sample object. Increases in the length of the delay, however, reduce the rat's ability to distinguish between the two objects in the recognition trial. For the testing of cognition-enhancing agents, a delay or inter-trial interval (ITI) is typically chosen at which complete forgetting normally occurs (i.e. where the time spent exploring both the novel and familiar object is equal), as this allows for considerable room for improvement in performance.
Both drugs were administered by intraperitoneal (IP) injection.
To generate a dose-effect curve for galantamine, various doses of this compound were administered to rats by IP injection 30 minutes prior to the information trial and compared to vehicle (0.5%-methyl cellulose)-treated controls (FIG. 7A).

The subject of data set [2] is Long-Evans rats. Description: 8 hour retention test on a twelve-arm radial maze (spatial memory). The class given is in vivo, rat. The following applies: 60 min prior to information session, vs vehicle (p<0.02). As for the experimental part:
12-arm maze test: Behavioral testing was conducted by an experimenter who was blind to drug treatment. 12 Long-Evans rats trained to use a win-shift strategy were given an information trial. During the information trial, 5 of the 12 arms of the 12 arm maze were blocked so that rats were not able to consume food from those blocked arms but could obtain food from each of the 7 open arms. After this session rats were moved to their home cage and placed back in the animal holding room. […] A retroactive memory error is made when the rat enters an arm that was […] on the information trial.
. Physiological saline (NaCl) was used as vehicle. […]

The conditions of data set [3]: cited from earlier work.

Consider four compounds from patent US20050267077A1 (priority 2004, published 2005).

In the case of `COc1cc2c(cc1OC)C(=O)C(CC1CCN(Cc3ccccc3)CC1)C2` (racemic) [donepezil, (±)-2,3-dihydro-5,6-dimethoxy-2-[[1-(phenylmethyl)-4-piperidinyl]methyl]-1H-inden-1-one], the “performance in the object recognition task” value in data set [1] (donepezil 1.7 mg/kg IP, 30 min prior to information trial) is “significantly improved performance”. The “adverse side effects in the rat” value in data set [1] (donepezil doses higher than 1.7 mg/kg IP) was “began to produce adverse side effects”. The “retention test performance on the 12-arm maze” value in data set [2] (3 mg/kg donepezil IP) was “improved performance”.
With `CCN(C)C(=O)Oc1cccc([C@H](C)N(C)C)c1` [rivastigmine], the disruption of behavior result in data set [1] (rivastigmine 1 mg/kg IP) is on record as “grossly disrupted behavior”. Moreover, in data set [1] (rivastigmine 0.01, 0.017, 0.03, 0.056, 0.17 and 0.3 mg/kg IP, vs vehicle), the “effect on memory in the object recognition task” value is listed as “no significant effect on memory”. Further, the “performance in the object recognition task” value in data set [1] (rivastigmine 0.1 IP, 30 min prior, vs vehicle (p=0.056)) was “approached a significant improvement in performance”. The “Recognition Score” value in data set [1] (rivastigmine alone 0.01 mg/kg) was determined as 55%; in data set [1] (rivastigmine alone 0.017 mg/kg) it was 59%. Besides, the half-life in humans result in data set [3] was “about 1.5 h”.
For the compound `CCCCP(=O)(O)CCCN` [ABPA, 3-aminopropyl-(n-butyl)-phosphinic acid], the “performance in the object recognition task” value in data set [1] (ABPA 3 and 30 mg/kg IP, 30 min prior to information trial, vs saline) was “no beneficial effect”; in data set [1] (ABPA 10, 100, 170, and 300 mg/kg IP, 30 min prior to information trial, vs saline), “significantly enhanced performance”. The “Recognition Score” value amounted to 58% in data set [1] (ABPA alone 3 mg/kg, Example 5 rivastigmine interaction study) and 58% in data set [1] (ABPA alone 3 mg/kg, Example 6 galantamine interaction study). In addition, the “retention test performance on the 12-arm maze” value in data set [2] (150 mg/kg ABPA IP) is recorded as “improved performance”.
In the case of `COc1ccc2c3c1O[C@H]1C[C@@H](O)C=C[C@@]31CCN(C)C2` [galantamine], the disruption of behavior entry in data set [1] (galantamine 3 mg/kg IP) is given as “gross disruption of behavior”. In addition, the “Recognition Score” value in data set [1] (galantamine alone 0.17 mg/kg) came out at 55%; in data set [1] (galantamine alone 0.3 mg/kg), 62%. Also, the half-life in humans in data set [3] is 5 to 6 h.
